In patent US9908877B2, “Imidazo[1,5-a]pyridinium ion fluorophores, and methods of making and using the same” (Indiana University Research and Technology Corporation, priority 2013, dated 2018):
Values belong to the compound of their own block, whether it stands above or below them.

How the values were obtained:
Type in all cases: physicochemical
[1] = Ultraviolet-visible light spectrum (maximum absorbance wavelength)
Procedure: Method for Obtaining an Ultraviolet-Visible Light Spectrum
Ultraviolet-visible (UV-Vis) Light spectra are obtained and recorded on an Agilent 8453 spectrophotometer using ChemStation software (Agilent Technologies, Inc., Santa Clara, Calif.).
(§1) The compounds were analyzed at 298° K according to the Method for Obtaining Ultraviolet-Visible Light Spectrum (30 μM acetonitrile) to obtain the maximum absorbance wavelength (λabs,max), Method for Obtaining Fluorescence Emission Spectrum (30 μM acetonitrile) to obtain the maximum emission wavelength (λem,max) and Method for Determining Quantum Yield (ΦF) (30 μM acetonitrile) at the concentration, in the solvent, and with the counter ion indicated in Table 1. The compounds included hydrogen at each R group that is not otherwise specified.
(§2) Compounds 6, 7, 9, 11-14 and 21 were analyzed according to: the Method for Obtaining Ultraviolet-Visible Light Spectrum to obtain the maximum absorbance wavelength (λabs,max), the Method for Obtaining Fluorescence Emission Spectrum to obtain the maximum emission wavelength (λem,max), and the Method for Determining Quantum Yield (ΦF) in the solvent and with the counter ion indicated in Table 3.

[2] = Fluorescence emission spectrum (maximum emission wavelength)
Procedure: Method for Obtaining a Fluorescence Emission Spectrum
Fluorescence emission spectra are obtained and recorded on a QM-4-CW Spectrofluorometer using FeliX32 software (Photon Technology International, Inc., Birmingham, N.J.).
as §1, §2

[3] = Fluorescence quantum yield, integrating sphere; details: for ΦF (quantum yield): 30 μM acetonitrile, 298 K, Table 1
Procedure: Method for Determining Quantum Yield
Quantum yield is determined using an integrating sphere attached to a QM-4-CW Spectrofluorometer using FeliX32 software (Photon Technology International).
as §1, §2

[4] = 30 μM acetonitrile, 298 K, Table 1

Structure (SMILES): CCCCn1cc2cccc(-c3ccc(N(C)C)cc3)[n+]2c1 [Compound 9, 2-butyl-5-(4-(dimethylamino)phenyl)-2H-imidazo[1,5-a]pyridin-4-ium tetraphenylborate]
λabs, max Abs ([1]; MeCN, 30 μM): 350 nm
λem, max Em ([2]; MeCN, 30 μM): 490 nm
[…]F (quantum yield) ([3]; MeCN, 30 μM): 75%

Structure (SMILES): CCCCn1c[n+]2ccccc2c1-c1ccc(C)cc1 [Compound 3, 2-butyl-1-(p-tolyl)-2H-imidazo[1,5-a]pyridin-4-ium tertraphenylborate]
λabs, max Abs [1, 4]: 320 nm
λem, max Em [2, 4]: 415 nm
ΦF (quantum yield) [3]: 46%

Structure (SMILES): CCCCn1c[n+]2ccccc2c1-c1ccc(N(CC)CC)cc1 [Compound 5, 2-butyl-1-(4-(diethylamino)phenyl)-2H-imidazo[1,5-a]pyridin-4-ium tetraphenylborate]
λabs, max Abs [1, 4]: 355 nm
λem, max Em [2, 4]: 550 nm
ΦF (quantum yield) [3]: 38%

Structure (SMILES): CCCCn1c[n+]2ccccc2c1-c1ccc(OC)cc1.[Cl-] [Compound 4, 2-butyl-1-(4-methoxyphenyl)-2H-imidazo[1,5-a]pyridin-4-ium chloride]
λabs, max Abs [1, 4]: 320 nm
λem, max Em [2, 4]: 430 nm
ΦF (quantum yield) [3]: 64%

More lines, now with the values ahead:

λabs, max Abs ([1]; MeCN, 30 μM): 360 nm
λem, max Em ([2]; MeCN, 30 μM): 540 nm
[…]F (quantum yield) ([3]; MeCN, 30 μM): 10%
Structure (SMILES): COc1ccc(-n2cc3cccc(-c4ccc(N(C)C)cc4)[n+]3c2)cc1 [Compound 21, 5-(4-(dimethylamino)phenyl)-2-(4-methoxyphenyl)-2H-imidazo[1,5-a]pyridin-4-ium tetraphenylborate]

λabs, max Abs ([1]; H2O pH = 2.2, 30 μM): 340 nm
λabs, max Abs ([1]; H2O pH = 7.5, 30 μM): 340 nm
λabs, max Abs ([1]; MeCN + excess TFA, 30 μM): 340 nm
λabs, max Abs ([1]; MeCN, 30 μM): 340 nm
λem, max Em ([2]; H2O pH = 2.2, 30 μM): 405 nm
λem, max Em ([2]; MeCN + excess TFA, 30 μM): 410 nm
[…]F (quantum yield) ([3]; H2O pH = 2.2, 30 μM): 53%
[…]F (quantum yield) ([3]; H2O pH = 7.5, 30 μM): 0%
[…]F (quantum yield) ([3]; MeCN + excess TFA, 30 μM): 64%
[…]F (quantum yield) ([3]; MeCN, 30 μM): 0%
Structure (SMILES): CCN(CC)c1ccc(-n2cc(-c3cccc4cn(-c5ccc(C)cc5)c[n+]34)nn2)cc1.[Cl-] [Compound 14, 5-(1-(4-(diethylamino)phenyl)-1H-1,2,3-triazol-4-yl)-2-(p-tolyl)-2H-imidazo[1,5-a]pyridin-4-ium chloride]

λabs, max Abs ([1]; H2O pH = 2.5, 30 μM): 340 nm
λabs, max Abs ([1]; H2O pH = 7.5, 30 μM): 340 nm
λabs, max Abs ([1]; MeCN + 50 μL TFA, 30 μM): 340 nm
λabs, max Abs ([1]; MeCN, 30 μM): 340 nm
λem, max Em ([2]; H2O pH = 2.5, 30 μM): 405 nm
λem, max Em ([2]; MeCN + 50 μL TFA, 30 μM): 410 nm
[…]F (quantum yield) ([3]; H2O pH = 2.5, 30 μM): 59%
[…]F (quantum yield) ([3]; H2O pH = 7.5, 30 μM): 0%
[…]F (quantum yield) ([3]; MeCN + 50 μL TFA, 30 μM): 67%
[…]F (quantum yield) ([3]; MeCN, 30 μM): 0%
Structure (SMILES): Cc1ccc(-n2cc3cccc(-c4cn(-c5ccc(N(C)C)cc5)nn4)[n+]3c2)cc1.[Cl-] [Compound 13, 5-(1-(4-(dimethylamino)phenyl)-1H-1,2,3-triazol-4-yl)-2-(p-tolyl)-2H-imidazo[1,5-a]pyridin-4-ium chloride]
